Two compounds from ChEMBL document CHEMBL4765443, “Covalent and noncovalent constraints yield a figure eight-like conformation of a peptide inhibiting the menin-MLL interaction” (Eur J Med Chem, 2020) can be followed below.

The target of experiment [1] is T1, Menin/Histone-lysine N-methyltransferase MLL (Homo sapiens, UniProt O00255). Briefly: Inhibition of Menin-MLL protein-protein interaction (unknown origin) preincubated for 1 hr in presence of FLSN-MLL4-43 peptide followed by compound addition and measured after 1 hr by fluorescence polarization assay. In general terms: Polarisation of emitted light reports the rotation of a fluorescent probe.

The target of experiment [2] is T1, Menin/Histone-lysine N-methyltransferase MLL. Nature of the experiment: Inhibition of Menin-MLL protein-protein interaction (unknown origin) preincubated for 1 hr in presence of FLSN-MBM1 peptide followed by compound addition and measured after 1 hr by fluorescence polarization assay.

Positions of bridges follow the written chain, without caps; N, C: chain ends. Non-standard residues stand in square brackets, D forms with d. Residues, ends and D or L forms follow the SMILES beside them. Phe(3-F) = N[C@@H](Cc1cccc(F)c1)C(=O)O; AllylGly = C=CC[C@H](N)C(=O)O; Ac4c = NC1(C(=O)O)CCC1

T1 sequence (O00255 whole entry): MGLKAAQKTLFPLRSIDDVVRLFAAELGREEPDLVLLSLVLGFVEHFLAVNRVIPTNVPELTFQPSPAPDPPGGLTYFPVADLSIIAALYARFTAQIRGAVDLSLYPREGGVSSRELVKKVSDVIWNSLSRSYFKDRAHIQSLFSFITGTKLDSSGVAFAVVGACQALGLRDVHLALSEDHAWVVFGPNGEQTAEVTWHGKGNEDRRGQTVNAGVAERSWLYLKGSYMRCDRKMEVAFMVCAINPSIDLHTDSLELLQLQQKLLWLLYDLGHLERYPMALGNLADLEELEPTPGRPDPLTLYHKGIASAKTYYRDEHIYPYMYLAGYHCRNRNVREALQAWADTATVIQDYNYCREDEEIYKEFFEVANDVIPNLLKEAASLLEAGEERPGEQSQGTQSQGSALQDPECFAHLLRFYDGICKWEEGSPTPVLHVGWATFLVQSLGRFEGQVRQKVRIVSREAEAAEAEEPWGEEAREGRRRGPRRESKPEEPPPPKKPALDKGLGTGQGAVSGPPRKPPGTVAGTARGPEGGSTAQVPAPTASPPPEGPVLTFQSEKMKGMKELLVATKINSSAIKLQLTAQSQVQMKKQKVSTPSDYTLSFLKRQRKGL
T1 sequence (Q03164 1-2718 partner limits assumed): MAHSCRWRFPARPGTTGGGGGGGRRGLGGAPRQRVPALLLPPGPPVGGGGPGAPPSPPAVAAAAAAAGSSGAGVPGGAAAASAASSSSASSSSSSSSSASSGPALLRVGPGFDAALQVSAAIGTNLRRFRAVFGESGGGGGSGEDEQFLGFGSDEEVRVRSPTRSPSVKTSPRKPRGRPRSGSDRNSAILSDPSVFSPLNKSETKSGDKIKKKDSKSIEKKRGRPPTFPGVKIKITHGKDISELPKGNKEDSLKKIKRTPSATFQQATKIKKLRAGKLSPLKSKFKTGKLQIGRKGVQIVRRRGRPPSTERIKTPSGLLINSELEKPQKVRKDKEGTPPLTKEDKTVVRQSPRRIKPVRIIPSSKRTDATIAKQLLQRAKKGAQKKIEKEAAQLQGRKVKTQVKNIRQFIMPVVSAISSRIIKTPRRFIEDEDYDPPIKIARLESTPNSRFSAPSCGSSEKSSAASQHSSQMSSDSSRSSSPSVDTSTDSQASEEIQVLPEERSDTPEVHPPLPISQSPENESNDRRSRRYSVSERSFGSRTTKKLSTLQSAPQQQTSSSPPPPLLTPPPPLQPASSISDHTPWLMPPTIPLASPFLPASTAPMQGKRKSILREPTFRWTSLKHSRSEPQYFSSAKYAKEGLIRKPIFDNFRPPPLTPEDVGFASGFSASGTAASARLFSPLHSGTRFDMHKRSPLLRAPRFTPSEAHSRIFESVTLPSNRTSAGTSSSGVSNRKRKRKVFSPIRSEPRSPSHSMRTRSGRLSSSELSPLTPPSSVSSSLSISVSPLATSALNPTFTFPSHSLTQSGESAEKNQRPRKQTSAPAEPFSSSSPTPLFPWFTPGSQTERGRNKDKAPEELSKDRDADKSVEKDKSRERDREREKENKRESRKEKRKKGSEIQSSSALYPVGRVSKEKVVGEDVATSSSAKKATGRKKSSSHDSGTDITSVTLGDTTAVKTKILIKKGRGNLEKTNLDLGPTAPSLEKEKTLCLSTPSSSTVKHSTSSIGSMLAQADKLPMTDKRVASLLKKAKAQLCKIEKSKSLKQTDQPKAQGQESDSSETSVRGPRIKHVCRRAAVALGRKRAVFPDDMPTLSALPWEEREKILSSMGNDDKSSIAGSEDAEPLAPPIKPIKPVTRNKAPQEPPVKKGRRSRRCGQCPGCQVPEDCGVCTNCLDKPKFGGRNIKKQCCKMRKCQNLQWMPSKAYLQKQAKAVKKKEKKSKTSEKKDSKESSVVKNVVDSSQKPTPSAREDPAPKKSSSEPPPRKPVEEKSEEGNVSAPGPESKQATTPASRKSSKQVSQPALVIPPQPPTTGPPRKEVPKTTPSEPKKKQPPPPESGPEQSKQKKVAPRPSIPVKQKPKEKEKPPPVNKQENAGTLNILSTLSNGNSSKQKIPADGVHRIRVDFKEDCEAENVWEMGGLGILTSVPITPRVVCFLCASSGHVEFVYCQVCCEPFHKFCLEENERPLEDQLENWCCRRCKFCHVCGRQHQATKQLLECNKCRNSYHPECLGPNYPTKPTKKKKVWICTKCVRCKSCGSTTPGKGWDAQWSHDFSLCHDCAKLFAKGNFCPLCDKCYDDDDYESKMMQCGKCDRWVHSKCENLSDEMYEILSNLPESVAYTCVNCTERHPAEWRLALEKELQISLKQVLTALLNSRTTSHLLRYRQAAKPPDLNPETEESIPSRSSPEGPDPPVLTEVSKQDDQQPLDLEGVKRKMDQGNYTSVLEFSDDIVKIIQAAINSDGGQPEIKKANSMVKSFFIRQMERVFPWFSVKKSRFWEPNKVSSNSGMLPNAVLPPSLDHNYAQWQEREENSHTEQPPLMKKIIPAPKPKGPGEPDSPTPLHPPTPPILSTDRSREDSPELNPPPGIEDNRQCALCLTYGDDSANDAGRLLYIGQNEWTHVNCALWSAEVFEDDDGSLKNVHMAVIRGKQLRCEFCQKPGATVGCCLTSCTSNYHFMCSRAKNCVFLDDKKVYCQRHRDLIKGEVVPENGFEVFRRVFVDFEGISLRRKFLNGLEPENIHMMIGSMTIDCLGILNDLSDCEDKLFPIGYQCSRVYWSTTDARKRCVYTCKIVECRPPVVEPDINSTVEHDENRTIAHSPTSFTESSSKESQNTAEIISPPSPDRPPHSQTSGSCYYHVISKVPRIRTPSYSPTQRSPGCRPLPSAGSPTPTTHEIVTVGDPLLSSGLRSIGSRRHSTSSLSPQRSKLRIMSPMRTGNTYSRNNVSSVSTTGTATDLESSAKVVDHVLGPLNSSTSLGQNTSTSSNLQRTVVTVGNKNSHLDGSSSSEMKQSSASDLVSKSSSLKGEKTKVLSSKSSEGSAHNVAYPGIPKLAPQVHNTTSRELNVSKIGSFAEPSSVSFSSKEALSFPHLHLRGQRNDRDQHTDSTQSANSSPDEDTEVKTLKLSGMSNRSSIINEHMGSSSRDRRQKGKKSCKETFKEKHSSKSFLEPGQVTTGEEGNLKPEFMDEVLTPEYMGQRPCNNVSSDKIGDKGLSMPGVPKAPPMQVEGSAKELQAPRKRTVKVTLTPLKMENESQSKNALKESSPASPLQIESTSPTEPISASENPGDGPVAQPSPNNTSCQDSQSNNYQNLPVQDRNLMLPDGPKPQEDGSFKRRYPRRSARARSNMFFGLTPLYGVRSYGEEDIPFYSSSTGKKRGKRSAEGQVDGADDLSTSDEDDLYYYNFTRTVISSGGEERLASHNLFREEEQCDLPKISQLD
T1 sequence (Q03164 2719-3969 partner limits assumed): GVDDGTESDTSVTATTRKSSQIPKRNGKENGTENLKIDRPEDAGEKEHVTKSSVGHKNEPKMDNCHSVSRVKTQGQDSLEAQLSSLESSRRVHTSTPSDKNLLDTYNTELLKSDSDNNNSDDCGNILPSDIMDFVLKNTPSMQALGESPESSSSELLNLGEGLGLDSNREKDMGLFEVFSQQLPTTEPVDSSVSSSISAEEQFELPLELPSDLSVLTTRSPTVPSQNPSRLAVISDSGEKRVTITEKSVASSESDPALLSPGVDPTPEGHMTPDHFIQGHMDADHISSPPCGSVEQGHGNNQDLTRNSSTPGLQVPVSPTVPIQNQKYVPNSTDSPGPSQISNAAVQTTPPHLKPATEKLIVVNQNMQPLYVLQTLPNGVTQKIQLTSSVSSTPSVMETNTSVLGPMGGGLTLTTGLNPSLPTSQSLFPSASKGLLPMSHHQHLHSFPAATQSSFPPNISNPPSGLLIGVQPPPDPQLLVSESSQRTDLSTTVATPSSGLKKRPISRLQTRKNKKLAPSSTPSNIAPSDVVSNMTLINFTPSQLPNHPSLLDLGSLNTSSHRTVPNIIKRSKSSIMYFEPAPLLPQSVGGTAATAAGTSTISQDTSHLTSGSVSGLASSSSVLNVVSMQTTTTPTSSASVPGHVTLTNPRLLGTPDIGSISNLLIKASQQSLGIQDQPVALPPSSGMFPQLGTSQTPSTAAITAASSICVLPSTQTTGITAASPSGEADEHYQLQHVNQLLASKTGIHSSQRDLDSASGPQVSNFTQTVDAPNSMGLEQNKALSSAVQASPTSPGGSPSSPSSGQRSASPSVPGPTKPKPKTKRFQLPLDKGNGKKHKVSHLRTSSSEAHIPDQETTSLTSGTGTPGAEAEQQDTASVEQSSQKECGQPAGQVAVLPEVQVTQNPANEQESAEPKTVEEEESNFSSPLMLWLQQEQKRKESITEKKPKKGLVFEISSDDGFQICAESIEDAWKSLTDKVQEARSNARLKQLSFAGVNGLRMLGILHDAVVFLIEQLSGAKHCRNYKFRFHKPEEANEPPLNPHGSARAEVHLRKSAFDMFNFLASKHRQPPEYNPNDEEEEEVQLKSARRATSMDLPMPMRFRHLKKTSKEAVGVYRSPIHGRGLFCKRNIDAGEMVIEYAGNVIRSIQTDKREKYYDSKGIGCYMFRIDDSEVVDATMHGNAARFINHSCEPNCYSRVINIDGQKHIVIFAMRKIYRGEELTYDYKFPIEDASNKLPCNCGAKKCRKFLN

`CC(=O)N[C@@H](CO)C(=O)N[C@@H](C)C(=O)N[C@@H](CCCNC(=N)N)C(=O)N[C@@H](Cc1c[nH]c2ccccc12)C(=O)N[C@@H](CCCNC(=N)N)C(=O)N[C@@H](Cc1ccccc1)C(=O)N1CCC[C@H]1C(=O)N[C@@H](C)C(=O)N[C@@H](CCCNC(=N)N)C(=O)N1CCC[C@H]1C(=O)NCC(=O)N[C@H](C(N)=O)[C@@H](C)O`: the IC50 (as a rule, the concentration that gives 50% inhibition) in experiment [1] turned out to be 3590 nM; in experiment [2], 84 nM.

For the compound `CC(=O)N[C@@H](CO)C(=O)N[C@@H](C)C(=O)N[C@@H](CCCNC(=N)N)C(=O)N[C@@H](Cc1c[nH]c2ccccc12)C(=O)N[C@H]1C/C=C\C[C@@H](C(=O)N2CCC[C@H]2C(=O)N[C@@H](CCCNC(=N)N)C(N)=O)NC(=O)C2(CCC2)NC(=O)[C@@H]2CCCN2C(=O)[C@H](Cc2cccc(F)c2)NC1=O` (Ac-SARW[AllylGly][Phe(3-F)]P[Ac4c][AllylGly]PR-NH2; staple (Z) 5-9), the IC50 in experiment [1] was determined as 657 nM; in experiment [2] it was 64 nM.
